Assay results published in patent publication US7163919B2, “Anticancer composition” (priority 2002, dated 2007).

Test: MTT cellular viability assay, 293
Type: cell-based
Conditions: human, 293 cells (human kidney epithelial cell line, ATCC CRL-1573), Example 7, FIG. 5, normal cell line 293

CC(=O)O[C@H]1C(=O)[C@@]2(C)[C@H]([C@H](OC(=O)c3ccccc3)[C@]3(O)C[C@H](OC(=O)[C@H](O)[C@@H](NC(=O)c4ccccc4)c4ccccc4)C(C)=C1C3(C)C)[C@]1(OC(C)=O)CO[C@@H]1C[C@@H]2O [TAXOL]
viability at 24 h: 20 to 25%
